Experimental findings from patent publication US20110197288A1, “Transgenic animal for screening of compounds that modulate cell proliferation, and its use in the pharmaceutical field” (priority 2009, published 2011) are described below.

The subject of series [1] is skin of transgenic mouse (luciferase reporter under CYCB2 promoter). Put plainly: skin light emission imaging after cutaneous application of carcinogen to transgenic mouse. To be noted: 0.24% DMBA solution in acetone on skin, day 7 relative to day 0; FIG. 9.
Experimental: To evaluate this application, the skin of a transgenic mouse according to the invention was treated with DMBA, a carcinogen, and the stimulation of light emission was measured for the carcinogen-treated side compared to the side treated with vehicle alone.
In particular, a 0.24% DMBA solution in acetone was applied to the skin of transgenic individuals according to the invention. One week later (day 7 relative to day 0) the amount of luciferase produced was detected by measuring the light emission produced by the skin of the animals.
In series [2] the test system is cell proliferation (luciferase reporter under CYCB2 promoter) in tissues. The series is described as follows: luciferase activity in tissue protein extracts of treated CYCB2-luciferase transgenic mice. It is filed as in vivo, mouse. To be noted: 150 ug/kg 5FU, 2 and 5 days, all tissues analysed, versus saline vehicle; FIG. 7. Here is the method:
For this purpose, organs were homogenized in lysis buffer and lysates were subjected to three cycles of freezing and thawing. Proteins were separated from DNA and lysosomes by centrifugation (13000×g for 30 min). After determining the protein concentration of the extract, the biochemical assay of luciferase activity was carried out by measuring luminescence emission with a luminometer. The relative luminescence units (RLU) determined during a measurement of 10 seconds were then expressed on the Y axis as RLU values per microgram protein. The results according to the graph in FIG. 2C indicate that, in the adult animal, light emission is restricted to organs characterized by basal homeostatic proliferation such as spleen, bone marrow, femur and sternum, or sites of active tissue remodeling in the mouse, such as joints of the feet, jaw, etc.
(§1) As an example of application for development of anti-proliferative drugs, heterozygous individuals of the transgenic mouse line according to the invention were treated as follows: a first group was treated with 150 ug/kg 5-fluorouracil (5FU), a well-known chemotherapeutic agent, while another group was treated with saline as control (vehicle) for 2 and 5 days.
Mice were sacrificed and luciferase activity was evaluated in tissue protein extracts, as reported in the graph in FIG. 7.

Series [3] relates to bone marrow cells. Put plainly: cell cycle phase analysis of bone marrow cells by FACS with propidium iodide staining. To be noted: bone marrow cells from 5FU treated mice, vehicle 11.2%, FIG. 8B. It is filed as in vivo, mouse. On the procedure: as §1
Cells were fixed with methanol acetone 4:1, stained with 0.1 mg/ml propidium iodide, a DNA fluorescent marker, and then subjected to FACS analysis.
Background: A flow cytometer gives signals particle by particle.

In series [4] the test system is bone marrow cells. Put plainly: luciferase expression (RLU per microgram protein) in bone marrow cells of treated transgenic mice. It is filed as in vivo, mouse. The conditions noted are these: 5 day 5FU treatment, FIG. 8A. On the procedure: To assess the expression of luciferase in proliferating progenitor cells, bone marrow cells, that are highly enriched in hematopoietic precursors, were collected by flushing the femurs with culture medium and enzyme activity was analyzed in protein extracts (Ciana et al 2001), as shown in the graph in FIG. 3A.
as §1

With `Cc1c2ccccc2c(C)c2c1ccc1ccccc12` [DMBA, 7,12-dimethylbenz(a)anthracene], the “induction of luciferase activity (light emission) versus region treated with vehicle alone” value in series [1] was 12.5 fold.
On to `O=c1[nH]cc(F)c(=O)[nH]1` [5FU, 5-fluorouracil], for which the “luciferase activity in tissue protein extracts” value in series [2] is recorded as “Reduced luciferase activity, until levels that were undetectable”. This compound registered a S phase cells in the series on bone marrow cells [3] of 1.97%. The “luciferase expression in bone marrow cells” value in the series with bone marrow cells [4] is recorded as “reduced luciferase expression”.
